Assay results: ChEMBL document CHEMBL3351699, “Diarylthiazole: an antimycobacterial scaffold potentially targeting PrrB-PrrA two-component system” (J Med Chem, 2014)
In brackets after ≈: the same amount, converted by molar mass.

Columns and labels:
[1] = test system: Mycobacterium tuberculosis; assay: Antimicrobial activity against Mycobacterium tuberculosis H37Rv ATCC 27294 assessed as growth inhibition after 5 days by microdilution method; type: functional; conditions: H37Rv ATCC 27294, 120 h
[2] = test system: Mycobacterium tuberculosis; assay: Bactericidal activity against Mycobacterium tuberculosis H37Rv ATCC 27294 after 5 days by microdilution method; type: functional; conditions: H37Rv ATCC 27294, 120 h
[3] = Solubility of the compound; type: physicochemical
[4] = Unbound fraction in mouse plasma; type: ADME, cell-free
[5] = Intrinsic clearance in mouse liver microsomes; type: ADME; conditions: read-out: CLH
[6] = Intrinsic clearance in human liver microsomes; type: ADME; conditions: read-out: CLH
[7] = test system: Mycobacterium tuberculosis; assay: Antimicrobial activity against clinical isolate Mycobacterium tuberculosis H37Rv ATCC 27294 assessed as growth inhibition after 7 days by turbidometry; type: functional; conditions: H37Rv ATCC 27294, 168 h
[8] = test system: Mycobacterium tuberculosis; assay: Antimicrobial activity against clinical isolate Mycobacterium tuberculosis ATCC25618 assessed as growth inhibition after 7 days by turbidometry; type: functional; conditions: ATCC25618, 168 h
[9] = test system: Mycobacterium tuberculosis; assay: Antimicrobial activity against clinical isolate Mycobacterium tuberculosis Erdman assessed as growth inhibition after 7 days by turbidometry; type: functional; conditions: 168 h
[10] = test system: Mycobacterium tuberculosis; assay: Antimicrobial activity against clinical isolate Mycobacterium tuberculosis Beijing assessed as growth inhibition after 7 days by turbidometry; type: functional; conditions: 168 h
[11] = test system: Mycobacterium tuberculosis; assay: Antimicrobial activity against clinical isolate Mycobacterium tuberculosis Harlingen assessed as growth inhibition after 7 days by turbidometry; type: functional; conditions: 168 h
[12] = test system: Mycobacterium tuberculosis; assay: Antimicrobial activity against clinical isolate Mycobacterium tuberculosis ATCC35811 assessed as growth inhibition after 7 days by turbidometry; type: functional; conditions: ATCC35811, 168 h
[13] = test system: Mycobacterium tuberculosis; assay: Antimicrobial activity against clinical isolate Mycobacterium tuberculosis DKU76 assessed as growth inhibition after 7 days by turbidometry; type: functional; conditions: DKU76, 168 h
[14] = test system: Mycobacterium tuberculosis; assay: Antimicrobial activity against clinical isolate Mycobacterium tuberculosis DKU97A assessed as growth inhibition after 7 days by turbidometry; type: functional; conditions: 168 h
[15] = test system: Mycobacterium tuberculosis; assay: Antimicrobial activity against clinical isolate Mycobacterium tuberculosis DKU211 assessed as growth inhibition after 7 days by turbidometry; type: functional; conditions: DKU211, 168 h
[16] = test system: Mycobacterium tuberculosis; assay: Antimicrobial activity against clinical isolate Mycobacterium tuberculosis DKU220 assessed as growth inhibition after 7 days by turbidometry; type: functional; conditions: DKU220, 168 h
[17] = test system: Mycobacterium tuberculosis; assay: Antimicrobial activity against clinical isolate Mycobacterium tuberculosis JAL assessed as growth inhibition after 7 days by turbidometry; type: functional; conditions: 168 h
[18] = test system: Mycobacterium tuberculosis; assay: Ratio of MBC for Mycobacterium tuberculosis H37Rv ATCC 27294 to MIC for Mycobacterium tuberculosis H37Rv ATCC 27294; type: functional
[19] = biological target: T1, Enoyl-[acyl-carrier-protein] reductase [NADH] (Mycobacterium tuberculosis, UniProt P9WGR1); assay: Inhibition of Mycobacterium tuberculosis InhA using NADH and dodecyl coA substrate by LC-MS/MS method
T1 sequence (P9WGR1 whole entry): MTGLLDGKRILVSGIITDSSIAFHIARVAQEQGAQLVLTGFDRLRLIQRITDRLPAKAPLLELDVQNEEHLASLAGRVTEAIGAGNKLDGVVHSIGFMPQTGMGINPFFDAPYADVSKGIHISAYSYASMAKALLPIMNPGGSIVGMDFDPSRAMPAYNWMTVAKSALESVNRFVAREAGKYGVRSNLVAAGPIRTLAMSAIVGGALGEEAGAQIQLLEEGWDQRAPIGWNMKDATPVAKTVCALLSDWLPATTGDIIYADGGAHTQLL

CCCc1cc(-c2nc(-c3ccnc(OCC)c3)cs2)ccn1
MIC80 [1]: 0.1 mg/L (≈ 0.307 µM) | MBC [2]: 0.1 mg/L (≈ 0.307 µM)

CCCc1cc(-c2nc(-c3cccnc3)cs2)ccn1
MIC80 [1]: 1.6 mg/L (≈ 5.69 µM)

CCc1cc(-c2ncc(-c3ccnc(OC)c3)s2)ccn1
MBC [2]: 0.5 mg/L (≈ 1.68 µM)

CCCc1cc(-c2nc(-c3ccc(NS(C)(=O)=O)cc3)cs2)ccn1
MIC80 [1]: 0.4 mg/L (≈ 1.07 µM) | solubility [3]: 1.3 µM (≈ 0.486 µg/mL) | fraction unbound [4]: < 0.01 | microsomal CLint [5]: 28.8 µL/min/mg | microsomal CLint [6]: 4.3 µL/min/mg | MIC80 [7]: 0.25 mg/L (≈ 0.669 µM) | MIC80 [8]: 0.13 mg/L (≈ 0.348 µM) | MIC80 [9]: 0.13 mg/L (≈ 0.348 µM) | MIC80 [10]: 0.13 mg/L (≈ 0.348 µM) | MIC80 [11]: 0.13 mg/L (≈ 0.348 µM) | MIC80 [12]: 0.5 mg/L (≈ 1.34 µM) | MIC80 [13]: 1 mg/L (≈ 2.68 µM) | MIC80 [14]: 0.5 mg/L (≈ 1.34 µM) | MIC80 [15]: 0.5 mg/L (≈ 1.34 µM) | MIC80 [16]: 0.5 mg/L (≈ 1.34 µM) | MIC80 [17]: 0.25 mg/L (≈ 0.669 µM)

CCCc1cc(-c2nc(-c3cccc(F)c3)cs2)ccn1
MIC80 [1]: 1 mg/L (≈ 3.35 µM)

CCCc1cc(-c2nc(-c3ccc(C(F)(F)F)cc3)cs2)ccn1
MIC80 [1]: 1 mg/L (≈ 2.87 µM)

CCCc1cc(-c2nc(-c3ccc(OCCN4CCCC4)cc3)cs2)ccn1
MIC80 [1]: 4.9 mg/L (≈ 12.5 µM) | solubility [3]: 155 µM (≈ 60.8 µg/mL) | MBC [2]: 4.9 mg/L (≈ 12.5 µM) | Ratio [18]: 1

CCCc1cc(-c2nc(-c3ccc(F)cc3)cs2)ccn1
MIC80 [1]: 1 mg/L (≈ 3.35 µM)

CCCc1cc(-c2nc(-c3ccccc3F)cs2)ccn1
MIC80 [1]: 2 mg/L (≈ 6.7 µM)

CN1CCC(c2nc(-c3ccc(Cl)cc3)cs2)CC1
MIC80 [1]: > 32 mg/L

CCCc1cc(-c2nc(-c3ccccc3)cs2)ccn1
MIC80 [1]: 1 mg/L (≈ 3.57 µM)

COCc1cc(-c2nc(-c3ccc(Cl)cc3)cs2)ccn1
MIC80 [1]: 4 mg/L (≈ 12.6 µM)

CCCc1cc(-c2nc(-c3ccc(Cl)cc3)cs2)ccn1
MIC80 [1]: 1 mg/L (≈ 3.18 µM) | MBC [2]: 2 mg/L (≈ 6.35 µM)

CCCc1cc(-c2nc(-c3ccc(OCC4CC4)cc3)cs2)ccn1
MIC80 [1]: 0.25 mg/L (≈ 0.713 µM) | MIC80 [7]: 0.5 mg/L (≈ 1.43 µM) | MIC80 [8]: 0.5 mg/L (≈ 1.43 µM) | MIC80 [9]: 0.5 mg/L (≈ 1.43 µM) | MIC80 [10]: 0.25 mg/L (≈ 0.713 µM) | MIC80 [11]: 0.25 mg/L (≈ 0.713 µM) | MIC80 [12]: 1 mg/L (≈ 2.85 µM) | MIC80 [13]: 1 mg/L (≈ 2.85 µM) | MIC80 [14]: 0.5 mg/L (≈ 1.43 µM) | MIC80 [15]: 0.5 mg/L (≈ 1.43 µM) | MIC80 [16]: 0.5 mg/L (≈ 1.43 µM) | MIC80 [17]: 0.5 mg/L (≈ 1.43 µM)

CCCc1cc(-c2nc(-c3ccc(OCCN(C)C)cc3)cs2)ccn1
MIC80 [1]: 16 mg/L (≈ 43.5 µM) | solubility [3]: 279 µM (≈ 102 µg/mL)

CCCc1cc(-c2nc(-c3ccccn3)cs2)ccn1
MIC80 [1]: 4 mg/L (≈ 14.2 µM)

CCCc1cc(-c2nc(-c3ccc(NC(=O)NCC)cc3)cs2)ccn1
MIC80 [1]: 1 mg/L (≈ 2.73 µM)

CCCc1cc(-c2nc(-c3ccc(OCCN4CCOCC4)cc3)cs2)ccn1
MIC80 [1]: 1 mg/L (≈ 2.44 µM) | solubility [3]: 29.8 µM (≈ 12.2 µg/mL) | MBC [2]: 5.2 mg/L (≈ 12.7 µM) | Ratio [18]: 2 | MIC80 [7]: 2 mg/L (≈ 4.88 µM) | MIC80 [8]: 2 mg/L (≈ 4.88 µM) | MIC80 [9]: 1 mg/L (≈ 2.44 µM) | MIC80 [10]: 1 mg/L (≈ 2.44 µM) | MIC80 [11]: 0.5 mg/L (≈ 1.22 µM) | MIC80 [12]: 1 mg/L (≈ 2.44 µM) | MIC80 [13]: 1 mg/L (≈ 2.44 µM) | MIC80 [14]: 1 mg/L (≈ 2.44 µM) | MIC80 [15]: 1 mg/L (≈ 2.44 µM) | MIC80 [16]: 2 mg/L (≈ 4.88 µM) | MIC80 [17]: 1 mg/L (≈ 2.44 µM)

CCc1cc(-c2nc(-c3ccc(Cl)cc3)cs2)ccn1
MIC80 [1]: 2 mg/L (≈ 6.65 µM)

CCCc1cc(-c2nc(-c3ccc(C)cc3)cs2)ccn1 [FATOSTATIN]
MIC80 [1]: 1 mg/L (≈ 3.4 µM) | solubility [3]: 0.4 µM (≈ 0.118 µg/mL)

CCCc1cc(-c2csc(-c3ccnc(CCC)c3)n2)ccn1
MIC80 [1]: 0.25 mg/L (≈ 0.773 µM)

CO[C@H]1/C=C/O[C@@]2(C)Oc3c(C)c(O)c4c(O)c(c(/C=N/N5CCN(C)CC5)c(O)c4c3C2=O)NC(=O)/C(C)=C\C=C\[C@H](C)[C@H](O)[C@@H](C)[C@@H](O)[C@@H](C)[C@H](OC(C)=O)[C@@H]1C [RIFAMPIN]
IC50 [19]: 0.03 µM | MIC80 [7]: 0.007 mg/L (≈ 0.00851 µM) | MIC80 [8]: 0.003 mg/L (≈ 0.00365 µM) | MIC80 [9]: 0.003 mg/L (≈ 0.00365 µM) | MIC80 [10]: 0.003 mg/L (≈ 0.00365 µM) | MIC80 [11]: 0.003 mg/L (≈ 0.00365 µM) | MIC80 [12]: 0.003 mg/L (≈ 0.00365 µM) | MIC80 [13]: 0.003 mg/L (≈ 0.00365 µM) | MIC80 [14]: 0.003 mg/L (≈ 0.00365 µM) | MIC80 [15]: 0.003 mg/L (≈ 0.00365 µM) | MIC80 [16]: 0.003 mg/L (≈ 0.00365 µM) | MIC80 [17]: 0.003 mg/L (≈ 0.00365 µM)

CCCc1cc(-c2nc(-c3ccc(Cl)cc3)c(C(=O)O)s2)ccn1
MIC80 [1]: > 32 mg/L

O=c1cc(-c2nc(-c3ccc(Cl)cc3)cs2)cc[nH]1
MIC80 [1]: > 32 mg/L
